Experimental findings from patent US20250287945A1, “COMPOSITIONS FOR FUNGAL CONTROL AND RELATED METHODS” (priority 2021, published 2025) are described below.

Values joined by “and” are separate entries in the source; they are usually repeats but may differ in a detail not shown here. Identical values can stand only once. “Also recorded” adds a separate entry of the source. Like-named read-outs stand apart in the source and are kept apart here.

For assay [1], the system named is Fusarium conidial suspension. In words: Fusarium viability colorimetric assay (PrestoBlue resazurin). The format is cell-based. The method, then: A Fusarium conidial suspension was prepared from a 7-day culture of Fusarium biomass grown on potato dextrose agar for 7 days, and quantified by hemocytometer, as described in Example 4. Solutions of fenpiclonil (Millipore Sigma, Cat. no. 36532) and of the individual peptides were prepared in 50% (w/v) ethanol in water, and tested using a PrestoBlue™ (resazurin) viability colorimetric assay as described in Example 4.
The Fusarium conidial suspension, peptide or control treatment solution, and potato dextrose broth (Alpha Biosciences, catalogue no. P16-126) were added to each well of a 96-well plate to obtain the desired treatment concentration and 1×10^6 conidia/mL in a final volume of 150 microliters per well. The plates were covered and incubated at 30° C. for 18 hours and 200 rpm. Fifteen microliters of PrestoBlue™ Cell Viability Reagent (Thermofisher Scientific, Cat no. A13262) were added to each well, and the plate was further incubated before measuring fluorescence at 590 nm emission with excitation at 560 nm using a spectrophotometer (BioTek Synergy H1 Microplate Reader, Fischer Scientific, Cat. no. 11-120-533).
On the technique in general: The colour change of resazurin is a common sign of viable cells or microbes.

Assay [2] deals with Botrytis cinarea (strain CBS 261.71). The assay is described as follows: Botrytis viability colorimetric assay (PrestoBlue resazurin). Format: cell-based, Botrytis cinerea. The following applies: for viability decrease relative to that obtained with the positive control (fenpiclonil): sentence prints Fusarium in the Botrytis assay.
Assay [3] has as its system conidia of Fusarium proliferatum. The assay is described as follows: oCelloScope live-cell imaging of fungal growth (SESA algorithm). Format: cell-based.
For assay [4], the system named is Aspergillus fumigatus CBS 120.53. In words: Micro broth dilution assay in 96-well plates. The following applies: 3 days of incubation; 375 micromolar or 187.5 micromolar; preliminary. The format is cell-based. (In general: Broth dilution looks for growth in wells or tubes with falling amounts of substance.)
Assay [5] concerns Aspergillus flavus DSM 1959. In words: Micro broth dilution assay in 96-well plates. The following applies: 3 days of incubation; 375 micromolar or 187.5 micromolar; preliminary. The format is cell-based.
For assay [6], the system named is Fusarium oxysporum CBS 130311. In words: Micro broth dilution assay in 96-well plates. Format: cell-based. The following applies: 3 days of incubation; 375 micromolar or 187.5 micromolar; preliminary.
For assay [7], the system named is Mucor circinelloides f. janssenii CBS 204.68. In words: Micro broth dilution assay in 96-well plates. Format: cell-based. The following applies: 3 days of incubation; 375 micromolar or 187.5 micromolar; preliminary.
Assay [8] has as its system Rhizomucor miehei CBS 147454. In words: Micro broth dilution assay in 96-well plates. The format is cell-based. The following applies: 3 days of incubation; 375 micromolar or 187.5 micromolar; preliminary.
Assay [9] concerns Cryptococcus neoformans DSM 70219. In words: Micro broth dilution assay in 96-well plates. The format is cell-based. The following applies: 2 days of incubation; 375 micromolar; preliminary.
[10] abbreviates: 375 micromolar, four replicates.

Regarding “GWHWLQLKPGQPMY (listed as Saccharomyces cerevisiae) [SEQ ID NO: 2187, Saccharomyces cerevisiae alpha pheromone with N-terminal glycine]”, the “Percent Inhibition (Fusarium), Experiment 5, Mean” value in assay [1] amounted to 66.96%. The “Percent Inhibition (Botrytis), Mean” value in assay [2] (setting [10]) came out at 66.96%. Besides, in assay [3], the “statistical comparison of normalized values with the untreated control” value is given as “significantly lower than the untreated control” and the “statistical significance of antifungal activity” value (“statistical significance” below) is recorded as “statistically significant antifungal activity”. Also, the “SESA value normalized against the untreated control, mean (x)” value (from here on “SESA value normalized”) in [3] (22 hours) was 0.519 and 0.367.
Take “WCGRPGQPC (REGION 1..9: note = Botrytis spp.) [SEQ ID NO: 2183, Botrytis cinerea alpha pheromone]”: the “Fusarium cell viability versus untreated / 50% ethanol carrier” value in assay [1] was “decreasing Fusarium cell viability; also recorded: decreased Fusarium cell viability; also recorded: less pronounced”. For the same sequence, the “Percent Inhibition (Fusarium), Experiment 4, Mean” value in [1] is reported as 46.67%. In addition, the “Percent Inhibition (Fusarium), Experiment 5, Mean” value in [1] is recorded as 42.81%. For the same sequence, in assay [2] (setting [10]), the “Percent Inhibition (Botrytis), Mean” value is given as −22.63%. Also, the “inhibition of growth / growth pattern” value in assay [4], in assay [5], in [6], in [7] and in assay [8] was “No inhibition of growth” throughout. Besides, the “growth / growth pattern” value in [9] was “reduced growth”. Besides, the “SESA value normalized” value in [3] (22 hours) was 1.540 and 1.743.
As to WCTWKGQPCW [SEQ ID NO: 2182], in [1], the “Fusarium cell viability versus untreated / 50% ethanol carrier” value is reported as “decreasing Fusarium cell viability; also recorded: decreased Fusarium cell viability; also recorded: less pronounced”; the “Percent Inhibition (Fusarium), Experiment 4, Mean” value is given as 47.78%; the “Percent Inhibition (Fusarium), Experiment 5, Mean” value stood at 28.39%. Besides, in assay [2], the “Botrytis cell viability versus untreated / 50% ethanol carrier” value was “decreased Botrytis cell viability” and the “Percent Inhibition (Botrytis), Mean” value stood at 8.56%. For the same sequence, the “SESA value normalized” value in assay [3] is 1.554 and 1.510.
Consider “WHWLQLKPGQPMY (listed as Saccharomyces cerevisiae) [SEQ ID NO: 2184, Saccharomyces cerevisiae alpha pheromone]”, for which, in assay [1], the “Percent Inhibition (Fusarium), Experiment 4, Mean” value was found to be 66.33%. In assay [1], the “Percent Inhibition (Fusarium), Experiment 5, Mean” value was 62.01%. Also, in [2] (375 micromolar), the “Botrytis cell viability versus untreated / 50% ethanol carrier” value is “decreased Botrytis cell viability”. Also, in [2] (setting [10]), the “Percent Inhibition (Botrytis), Mean” value came out at 45.14%. Besides, the “viability decrease relative to that obtained with the positive control (fenpiclonil)” value in assay [2] (375 micromolar) is “roughly about two-thirds of the viability decrease obtained using the positive control”. Further, the “inhibition of growth / growth pattern” value in assay [4], in assay [5], in assay [6], in assay [7] and in assay [8] was “No inhibition of growth” throughout. Besides, in assay [9], the “growth / growth pattern” value was “reduced growth”. Also, the “statistical comparison of normalized values with the untreated control” value in assay [3] is reported as “significantly lower than the untreated control”. In assay [3], the “statistical significance” value was “statistically significant antifungal activity”.
On to “WHWLQLKPGQPMYG (listed as Saccharomyces cerevisiae) [SEQ ID NO: 2186, Saccharomyces cerevisiae alpha pheromone with C-terminal glycine]”, for which, in assay [1], the “Fusarium cell viability versus untreated / 50% ethanol carrier” value was “greatly decreased Fusarium cell viability to about the same level as did the positive control”; the “Percent Inhibition (Fusarium), Experiment 4, Mean” value is listed as 64.21%; the “Percent Inhibition (Fusarium), Experiment 5, Mean” value is 66.45%. For the same sequence, the “Percent Inhibition (Botrytis), Mean” value in assay [2] (setting [10]) turned out to be 47.30%. Also, in [3], the “statistical comparison of normalized values with the untreated control” value is on record as “significantly lower than the untreated control” and the “statistical significance” value was “statistically significant antifungal activity”. Also, the “SESA value normalized” value in [3] (22 hours) was 1.119 and 0.742.
For “WHWLQLKPGQPMYWHWLQLKPGQPMY (listed as Saccharomyces cerevisiae) [SEQ ID NO: 2188, Saccharomyces cerevisiae alpha pheromone homodimer with no linker]”, the “Percent Inhibition (Fusarium), Experiment 5, Mean” value in [1] is recorded as 71.82%. For the same sequence, in assay [2] (375 micromolar), the “Botrytis cell viability versus untreated / 50% ethanol carrier” value is listed as “reducing Botrytis cell viability as well as did the fenpiclonil treatment” and the “viability decrease relative to that obtained with the positive control (fenpiclonil)” value is “roughly about two-thirds of the viability decrease obtained using the positive control”. Also, the “Percent Inhibition (Botrytis), Mean” value in assay [2] (setting [10]) was 71.82%. In addition, the “statistical significance” value in [3] is “statistically significant antifungal activity”. For the same sequence, the “SESA value normalized” value in assay [3] (22 hours) was 0.330 and 0.351.
In the case of WKMGQYHQLPPLW [SEQ ID NO: 2185], in assay [1], the “Fusarium cell viability versus untreated / 50% ethanol carrier” value was “greatly decreased Fusarium cell viability to about the same level as did the positive control”; the “Percent Inhibition (Fusarium), Experiment 4, Mean” value was found to be 70.84%; the “Percent Inhibition (Fusarium), Experiment 5, Mean” value came to 69.60%. Besides, the “Percent Inhibition (Botrytis), Mean” value in [2] (setting [10]) is listed as 52.30%. In addition, the “SESA value normalized” value in assay [3] (250 micromolar (nominal, filtered), 22 hours, 30% potato dextrose broth) came to 0.850. Further, the “SESA value normalized” value in assay [3] (375 micromolar (nominal, filtered), 22 hours, 30% potato dextrose broth) was found to be 0.439. Moreover, the “statistical comparison of normalized values with the untreated control” value in assay [3] (nominal concentration of 375 micromolar) is reported as “significantly lower than the untreated control”.
